How the values were obtained:
Type in all cases: in vivo
Abutilon theophrasti [1] = assay: Pre-emergence herbicidal action against ABUTH; conditions: visual score after 3 weeks vs untreated controls
Excerpt: (§1) Seeds of monocotyledonous and dicotyledonous weed plants and crop plants are laid out in sandy loam soil in wood-fiber pots and covered with soil. The compounds of the invention, formulated in the form of wettable powders (WP) or as emulsion concentrates (EC), are then applied to the surface of the covering soil in the form of an aqueous suspension or emulsion at a water application rate equivalent to 600 to 800 l/ha, with addition of 0.2% wetting agent. After the treatment, the pots are placed in a greenhouse and kept under good growth conditions for the trial plants. The damage to the test plants is scored visually after a test period of 3 weeks by comparison with untreated controls (herbicidal activity in percent (%): 100% activity=the plants have died, 0% activity=like control plants). […] The tables below illustrate, in an illustrative manner, the post-emergence herbicidal action of the compounds of the invention, the herbicidal activity being stated in percent.

Alopecurus myosuroides [2] = assay: Pre-emergence herbicidal action against ALOMY; conditions: visual score after 3 weeks vs untreated controls
Excerpt: as §1

Amaranthus retroflexus [3] = assay: Pre-emergence herbicidal action against AMARE; conditions: visual score after 3 weeks vs untreated controls
Excerpt: as §1

Avena fatua [4] = assay: Pre-emergence herbicidal action against AVEFA; conditions: 80 g/ha; visual score after 3 weeks vs untreated controls
Excerpt: as §1

Echinochloa crus-galli [5] = assay: Pre-emergence herbicidal action against ECHCG; conditions: 80 g/ha; visual score after 3 weeks vs untreated controls
Excerpt: as §1

Matricaria inodora [6] = assay: Pre-emergence herbicidal action against MATIN; conditions: visual score after 3 weeks vs untreated controls
Excerpt: as §1

Setaria viridis [7] = assay: Pre-emergence herbicidal action against SETVI
Excerpt: as §1

Viola tricolor [8] = assay: Pre-emergence herbicidal action against VIOTR
Excerpt: as §1

Abutilon theophrasti [9] = assay: Post-emergence herbicidal action against ABUTH
Procedure: (§2) Seeds of monocotyledonous and dicotyledonous weed and crop plants are laid out in sandy loam soil in wood-fiber pots, covered with soil and cultivated in a greenhouse under good growth conditions. 2 to 3 weeks after sowing, the test plants are treated at the one-leaf stage. The compounds of the invention, formulated in the form of wettable powders (WP) or as emulsion concentrates (EC), are then sprayed onto the green parts of the plants in the form of an aqueous suspension or emulsion at a water application rate equivalent to 600 to 800 l/ha, with addition of 0.2% wetting agent. After the test plants have been left to stand in the greenhouse under optimal growth conditions for about 3 weeks, the action of the preparations is assessed visually in comparison to untreated controls (herbicidal action in percent (%): 100% activity=the plants have died, 0% activity=like control plants). […] The tables below illustrate, in an illustrative manner, the post-emergence herbicidal action of the compounds of the invention, the herbicidal activity being stated in percent.

Alopecurus myosuroides [10] = assay: Post-emergence herbicidal action against ALOMY
Procedure: as §2

Amaranthus retroflexus [11] = assay: Post-emergence herbicidal action against AMARE; conditions: visual assessment about 3 weeks after treatment
Procedure: as §2

Pharbitis purpurea = assay: Post-emergence herbicidal action against PHBPU; conditions: 20 g/ha, visual assessment about 3 weeks after treatment
Procedure: as §2

Setaria viridis [12] = assay: Post-emergence herbicidal action against SETVI; conditions: visual assessment about 3 weeks after treatment
Procedure: as §2

Viola tricolor [13] = assay: Post-emergence herbicidal action against VIOTR
Procedure: as §2

Digitaria sanguinalis = assay: Pre-emergence herbicidal action against DIGSA
Excerpt: as §1

Matricaria inodora [14] = assay: Post-emergence herbicidal action against MATIN; conditions: visual assessment about 3 weeks after treatment
Procedure: as §2

Veronica persica [15] = assay: Pre-emergence herbicidal action against VERPE; conditions: 80 g/ha
Excerpt: as §1

Echinochloa crus-galli [16] = assay: Post-emergence herbicidal action against ECHCG; conditions: 20 g/ha, visual assessment about 3 weeks after treatment
Procedure: as §2

Veronica persica [17] = assay: Post-emergence herbicidal action against VERPE; conditions: 20 g/ha, visual assessment about 3 weeks after treatment
Procedure: as §2

Avena fatua [18] = assay: Post-emergence herbicidal action against AVEFA; conditions: 20 g/ha, visual assessment about 3 weeks after treatment
Procedure: as §2

| SMILES | Pre-emergence action against ABUTH (Abutilon theophrasti [1]; 20 g/ha) [%] | Pre-emergence action against ABUTH (Abutilon theophrasti [1]; 80 g/ha) [%] | Pre-emergence action against ALOMY (Alopecurus myosuroides [2]; 80 g/ha) [%] | Pre-emergence action against AMARE (Amaranthus retroflexus [3]; 20 g/ha) [%] | Pre-emergence action against AMARE (Amaranthus retroflexus [3]; 80 g/ha) [%] | Pre-emergence action against ECHCG (Echinochloa crus-galli [5]) [%] | Pre-emergence action against MATIN (Matricaria inodora [6]; 20 g/ha) [%] | Pre-emergence action against MATIN (Matricaria inodora [6]; 80 g/ha) [%] | Pre-emergence action against SETVI (Setaria viridis [7]; 80 g/ha) [%] | Pre-emergence action against VIOTR (Viola tricolor [8]; 80 g/ha) [%] | Post-emergence action against ABUTH (Abutilon theophrasti [9]; 5 g/ha) [%] | Post-emergence action against ABUTH (Abutilon theophrasti [9]; 20 g/ha) [%] | Post-emergence action against ALOMY (Alopecurus myosuroides [10]; 20 g/ha) [%] | Post-emergence action against AMARE in % (Amaranthus retroflexus [11]; 5 g/ha) [%] | Post-emergence action against AMARE in % (Amaranthus retroflexus [11]; 20 g/ha) [%] | Post-emergence action against SETVI in % (Setaria viridis [12]; 5 g/ha) [%] | Post-emergence action against SETVI in % (Setaria viridis [12]; 20 g/ha) [%] | Post-emergence action against VIOTR in % (Viola tricolor [13]; 20 g/ha) [%] | Post-emergence action against MATIN in % (Matricaria inodora [14]; 20 g/ha) [%] | Post-emergence action against ECHCG in % (Echinochloa crus-galli [16]) [%] | further results |
| --- | --- | --- | --- | --- | --- | --- | --- | --- | --- | --- | --- | --- | --- | --- | --- | --- | --- | --- | --- | --- | --- |
| CCn1nnnc1NC(=O)c1ccc(Br)c(C(=O)N(C)C)c1Cl [Example 2-191] | 90 | 100 | 100 | 100 | 100 | 100 | 90 | 100 | 100 | 80 | 90 | 90 | 100 | 100 | 100 | 100 | 100 | 80 |  |  | Pre-emergence action against ALOMY (Alopecurus myosuroides [2]; 20 g/ha): 90%; Pre-emergence action against AVEFA (Avena fatua [4]): 90%; Pre-emergence action against SETVI (Setaria viridis [7]; 20 g/ha): 100%; Post-emergence action against PHBPU in % (Pharbitis purpurea): 80% |
| CCOC(=O)[C@@H]1CCCN1C(=O)c1c(C(F)(F)F)ccc(C(=O)Nc2nnnn2C)c1Cl [Example 1-400] |  | 100 |  | 90 | 100 |  |  | 90 |  |  |  |  |  |  |  |  |  |  |  |  | Pre-emergence action against DIGSA (Digitaria sanguinalis; 20 g/ha): 100%; Pre-emergence action against DIGSA (Digitaria sanguinalis; 80 g/ha): 100% |
| CCn1nnnc1NC(=O)c1ccc(C(F)(F)F)c(C(=O)N(C2CC2)C2CC2)c1Cl [Example 2-144] | 90 | 100 |  |  | 100 |  |  | 100 |  | 100 |  |  |  | 90 | 90 |  |  |  | 80 |  |  |
| CCn1nnnc1NC(=O)c1ccc(C(F)F)c(C(=O)N(C2CC2)C2CC2)c1Cl [Example 2-175] | 100 | 100 | 90 | 100 | 100 |  | 90 | 100 |  | 90 | 80 | 90 |  | 100 | 100 |  |  | 80 |  |  | Pre-emergence action against ALOMY (Alopecurus myosuroides [2]; 20 g/ha): 80% |
| CCN(CC)C(=O)c1c(C(F)F)ccc(C(=O)Nc2nnnn2CC)c1C [Example 2-59] | 100 | 100 | 90 | 80 | 100 | 90 | 90 | 100 |  | 100 | 90 | 90 | 90 | 100 | 100 | 90 | 90 | 90 | 90 | 90 | Pre-emergence action against VERPE (Veronica persica [15]): 90%; Pre-emergence action against VIOTR (Viola tricolor [8]; 20 g/ha): 100%; Post-emergence action against MATIN in % (Matricaria inodora [14]; 5 g/ha): 80%; Post-emergence action against VERPE in % (Veronica persica [17]): 90%; Post-emergence action against VIOTR in % (Viola tricolor [13]; 5 g/ha): 80% |
| CCN(C)C(=O)c1c(C(F)F)ccc(C(=O)Nc2nnnn2C)c1C [Example 1-51] |  | 100 | 80 | 80 | 100 | 90 |  | 90 | 80 | 90 | 80 | 80 | 80 | 100 | 100 | 80 | 80 | 90 | 80 | 80 | Pre-emergence action against VERPE (Veronica persica [15]): 80%; Post-emergence action against PHBPU in % (Pharbitis purpurea): 90%; Post-emergence action against VERPE in % (Veronica persica [17]): 80%; Post-emergence action against VIOTR in % (Viola tricolor [13]; 5 g/ha): 80% |
| Cn1nnnc1NC(=O)c1ccc(C(F)F)c(C(=O)N(C2CC2)C2CC2)c1Cl [Example 1-175] | 90 | 100 |  | 80 | 100 |  | 90 | 90 |  | 90 | 80 | 90 |  | 100 | 100 |  |  |  | 90 |  |  |
| CCOC(=O)[C@@H]1CCCN1C(=O)c1c(C(F)F)ccc(C(=O)Nc2nnnn2C)c1Cl [Example 1-402] |  |  |  |  | 100 |  |  | 90 |  |  |  |  |  |  | 90 |  |  |  |  |  |  |
| CCN(CC)C(=O)c1c(C(F)F)ccc(C(=O)Nc2nnnn2C)c1C [Example 1-59] |  | 100 | 90 | 100 | 100 |  |  | 90 | 100 |  | 90 | 90 | 90 | 100 | 100 | 90 | 90 | 80 | 90 | 80 | Pre-emergence action against VERPE (Veronica persica [15]): 90%; Post-emergence action against ALOMY (Alopecurus myosuroides [10]; 5 g/ha): 90%; Post-emergence action against AVEFA in % (Avena fatua [18]): 90%; Post-emergence action against VERPE in % (Veronica persica [17]): 90% |
| Cc1c(C(=O)Nc2nnnn2C)ccc(C(F)F)c1C(=O)N(C)C [Example 1-50] |  | 100 | 80 | 90 | 100 | 80 | 80 | 90 | 80 |  | 80 | 90 |  | 90 | 100 |  | 80 | 80 |  | 80 | Post-emergence action against PHBPU in % (Pharbitis purpurea): 80%; Post-emergence action against VERPE in % (Veronica persica [17]): 80% |

Source: patent US12599136B2, “Substituted isophthalic acid diamides and their use as herbicides” (Bayer Aktiengesellschaft, priority 2020, dated 2026)
